# From US20200291018A1, “TAM KINASE INHIBITORS” (SYROS PHARMACEUTICALS, INC., priority 2017, published 2020)
# Structures can show the parent of a compound that is named as a salt.
# Columns and labels:
# FLT3 = molecular target: T1, FLT3 (Homo sapiens, UniProt P36888); experiment: TR-FRET kinase activity assay, FLT3; format: biochemical; settings: ATP at Km, 60 minutes
# T1 sequence (P36888 27-993): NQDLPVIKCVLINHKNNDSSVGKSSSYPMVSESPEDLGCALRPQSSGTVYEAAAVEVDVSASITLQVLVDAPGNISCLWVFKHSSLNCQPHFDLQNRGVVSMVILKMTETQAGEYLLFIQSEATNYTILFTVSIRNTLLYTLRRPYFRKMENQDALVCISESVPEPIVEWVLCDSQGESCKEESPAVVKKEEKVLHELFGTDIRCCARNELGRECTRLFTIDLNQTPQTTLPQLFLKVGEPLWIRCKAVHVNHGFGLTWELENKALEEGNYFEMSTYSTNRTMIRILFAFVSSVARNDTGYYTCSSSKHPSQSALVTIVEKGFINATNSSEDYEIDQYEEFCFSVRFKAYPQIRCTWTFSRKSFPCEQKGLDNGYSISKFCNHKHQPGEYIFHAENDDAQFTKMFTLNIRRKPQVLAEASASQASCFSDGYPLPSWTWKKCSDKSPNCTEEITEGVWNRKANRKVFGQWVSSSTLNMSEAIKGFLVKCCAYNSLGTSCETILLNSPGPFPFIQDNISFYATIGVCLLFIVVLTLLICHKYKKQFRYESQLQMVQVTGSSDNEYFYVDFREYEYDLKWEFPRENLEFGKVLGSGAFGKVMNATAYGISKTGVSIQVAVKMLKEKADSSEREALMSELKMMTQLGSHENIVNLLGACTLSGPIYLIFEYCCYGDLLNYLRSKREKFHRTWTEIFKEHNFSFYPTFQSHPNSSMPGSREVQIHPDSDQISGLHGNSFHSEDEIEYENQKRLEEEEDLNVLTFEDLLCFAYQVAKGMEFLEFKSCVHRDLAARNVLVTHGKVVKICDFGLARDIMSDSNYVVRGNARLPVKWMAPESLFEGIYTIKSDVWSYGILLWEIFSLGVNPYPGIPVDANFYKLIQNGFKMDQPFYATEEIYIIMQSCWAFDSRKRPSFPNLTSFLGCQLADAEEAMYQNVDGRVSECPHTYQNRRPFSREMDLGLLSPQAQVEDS
# Summary of the method: (§1)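 IC50 came from TR-FRET signal after 30 min dark development with a Europium-labeled phospho-specific antibody. This followed a 60 min RT reaction, stopped with EDTA, started with ATP at Km per enzyme. Peptide substrate, enzyme and compound were premixed in HEPES pH 7.5 buffer with MgCl2, EGTA, Brij 35 and DTT.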
# AXL = molecular target: T2, AXL (Homo sapiens, UniProt P30530); experiment: TR-FRET kinase activity assay, AXL; format: biochemical; settings: ATP at Km, 60 minutes
# T2 sequence (P30530 26-894): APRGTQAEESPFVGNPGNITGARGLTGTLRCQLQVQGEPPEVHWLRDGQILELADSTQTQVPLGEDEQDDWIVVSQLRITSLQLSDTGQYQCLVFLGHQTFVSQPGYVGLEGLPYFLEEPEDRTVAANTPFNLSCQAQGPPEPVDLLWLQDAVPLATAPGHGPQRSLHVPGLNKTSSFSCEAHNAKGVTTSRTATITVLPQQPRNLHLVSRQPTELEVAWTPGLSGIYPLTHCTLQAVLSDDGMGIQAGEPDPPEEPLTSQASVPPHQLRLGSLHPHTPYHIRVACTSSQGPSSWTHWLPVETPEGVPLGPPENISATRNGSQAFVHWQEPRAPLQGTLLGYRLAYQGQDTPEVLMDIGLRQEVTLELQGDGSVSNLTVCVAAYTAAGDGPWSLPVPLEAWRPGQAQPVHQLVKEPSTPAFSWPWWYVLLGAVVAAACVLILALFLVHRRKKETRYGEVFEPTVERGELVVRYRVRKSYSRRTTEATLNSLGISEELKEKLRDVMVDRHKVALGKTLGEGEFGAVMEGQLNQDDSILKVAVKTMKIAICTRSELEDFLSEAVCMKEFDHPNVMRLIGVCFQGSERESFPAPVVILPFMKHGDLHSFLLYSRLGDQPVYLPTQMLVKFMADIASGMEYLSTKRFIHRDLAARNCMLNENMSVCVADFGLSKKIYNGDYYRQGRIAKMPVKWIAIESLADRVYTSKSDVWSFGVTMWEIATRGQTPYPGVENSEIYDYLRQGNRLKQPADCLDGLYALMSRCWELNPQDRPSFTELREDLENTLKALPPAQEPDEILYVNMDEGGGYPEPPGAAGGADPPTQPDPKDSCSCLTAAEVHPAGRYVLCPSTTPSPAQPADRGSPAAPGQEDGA
# Summary of the method: as §1
SMILES,IC50 (FLT3) [µM],IC50 (AXL) [µM]
CCCCNc1ncc2c(=O)n(-c3ccc(CN4CCOCC4)cc3)cc([C@H]3CC[C@H](O)CC3)c2n1 [Compound 101],0.1 to 1,0.1 to 1
"CCCCNc1ncc2c(NCc3ccc(F)cc3)ncc([C@H]3CC[C@H](O)CC3)c2n1 [Compound 103, 4-[2-(butylamino)-5-[(4-fluorophenyl)methylamino]pyrido[4,3-d]pyrimidin-8-yl]cyclohexanol hydrochloride]",≤ 0.1,0.1 to 1
"CCCCNc1ncc2c(OC3CCOCC3)ncc([C@H]3CC[C@H](O)CC3)c2n1 [Compound 104, (1r,4r)-4-(2-(butylamino)-5-((tetrahydro-2H-pyran-4-yl)oxy)pyrido[4,3-d]pyrimidin-8-yl)cyclohexanol]",≤ 0.1,≤ 0.1
CCCCNc1ncc2c(OC)ncc([C@H]3CC[C@H](O)CC3)c2n1 [Compound 127],≤ 0.1,≤ 0.1
"CCCC(C)Nc1ncc2c(=O)n(C3CCN(C(C)=O)CC3)cc([C@H]3CC[C@H](O)CC3)c2n1 (some centres unmarked) [Compound 128, 6-(1-acetylpiperidin-4-yl)-8-((1r,4r)-4-hydroxycyclohexyl)-2-(pentan-2-ylamino)pyrido[4,3-d]pyrimidin-5(6H)-one hydrochloride]",1 to 10,0.1 to 1
CCCCNc1ncc2c(OC3CCNCC3)ncc([C@H]3CC[C@H](O)CC3)c2n1 [Compound 129],≤ 0.1,≤ 0.1
CCCCC[C@H](C)Nc1ncc2c(OC3CCNCC3)ncc([C@H]3CC[C@H](O)CC3)c2n1 [Compound 130],1 to 10,≤ 0.1
CCCCNc1ncc2c(OC3CCN(C)CC3)ncc([C@H]3CC[C@H](O)CC3)c2n1 [Compound 131],≤ 0.1,≤ 0.1
O[C@H]1CC[C@H](c2cnc(OC3CCOCC3)c3cnc(NC4CCCC4)nc32)CC1 [Compound 132],≤ 0.1,≤ 0.1
CCCC(C)Nc1ncc2c(OC3CCOCC3)ncc([C@H]3CC[C@H](O)CC3)c2n1 (some centres unmarked) [Compound 133],1 to 10,0.1 to 1
"O[C@H]1CC[C@H](c2cnc(OC3CCOCC3)c3cnc(Nc4ccc(Cl)cc4)nc32)CC1 [Compound 134, (1r,4r)-4-(2-((4-chlorophenyl)amino)-5-((tetrahydro-2H-pyran-4-yl)oxy)pyrido[4,3-d]pyrimidin-8-yl)cyclohexan-1-ol]",0.1 to 1,≤ 0.1
CC(C)Nc1ncc2c(OC3CCNCC3)ncc([C@H]3CC[C@H](O)CC3)c2n1 [Compound 135],1 to 10,≤ 0.1
O[C@H]1CC[C@H](c2cnc(OC3CCNCC3)c3cnc(N[C@H]4CCOC4)nc32)CC1 [Compound 136],1 to 10,0.1 to 1
C[C@@H](CO)Nc1ncc2c(OC3CCOCC3)ncc([C@H]3CC[C@H](O)CC3)c2n1 [Compound 137],1 to 10,1 to 10
CCCC(C)Nc1ncc2c(=O)n(C3CCN(S(C)(=O)=O)CC3)cc([C@H]3CC[C@@H](O)CC3)c2n1 (some centres unmarked) [Compound 138],1 to 10,0.1 to 1
CCCC(C)Nc1ncc2c(O[C@H]3CC[C@H](O)CC3)ncc([C@H]3CC[C@H](O)CC3)c2n1 (some centres unmarked) [Compound 139],0.1 to 1,0.1 to 1
CCC(C)Nc1ncc2c(OC3CCOCC3)ncc([C@H]3CC[C@H](O)CC3)c2n1 (some centres unmarked) [Compound 140],1 to 10,0.1 to 1
CCCC(C)Nc1ncc2c(OC3CCS(=O)(=O)CC3)ncc([C@H]3CC[C@H](O)CC3)c2n1 (some centres unmarked) [Compound 141],1 to 10,0.1 to 1
CCCC(C)Nc1ncc2c(OC3CCS(=O)(=O)CC3)ncc([C@H]3CC[C@@H](O)CC3)c2n1 (some centres unmarked) [Compound 142],1 to 10,1 to 10
CCCC(C)Nc1ncc2c(OC3CCN(S(C)(=O)=O)CC3)ncc([C@H]3CC[C@H](O)CC3)c2n1 (some centres unmarked) [Compound 143],1 to 10,0.1 to 1

SMILES,IC50 (FLT3) [µM],IC50 (AXL) [µM]
CC1(C)CC(Nc2ncc3c(OC4CCOCC4)ncc([C@H]4CC[C@H](O)CC4)c3n2)C1 [Compound 144],≤ 0.1,0.1 to 1
COC[C@@H](C)Nc1ncc2c(OC3CCOCC3)ncc([C@H]3CC[C@H](O)CC3)c2n1 [Compound 145],1 to 10,1 to 10
CCCC(C)Nc1ncc2c(N(C)C3CCN(C)CC3)ncc([C@H]3CC[C@H](O)CC3)c2n1 (some centres unmarked) [Compound 146],1 to 10,1 to 10
CCCC(C)Nc1ncc2c(OC3CCC(OC)CC3)ncc([C@H]3CC[C@H](O)CC3)c2n1 (some centres unmarked) [Compound 147],1 to 10,0.1 to 1
CCCC(C)Nc1ncc2c(O[C@H]3CC[C@@H](O)CC3)ncc([C@H]3CC[C@H](O)CC3)c2n1 (some centres unmarked) [Compound 148],1 to 10,0.1 to 1
CCCC(C)Nc1ncc2c(=O)n(C3CCN(CC(=O)N(C)C)CC3)cc([C@H]3CC[C@@H](O)CC3)c2n1 (some centres unmarked) [Compound 149],1 to 10,0.1 to 1
CCCC(C)Nc1ncc2c(=O)n(C3CCN(CCOC)CC3)cc([C@H]3CC[C@H](O)CC3)c2n1 (some centres unmarked) [Compound 150],1 to 10,0.1 to 1
CCCC(C)Nc1ncc2c(=O)n(C3CCN(CCC(=O)N(C)C)CC3)cc([C@H]3CC[C@H](O)CC3)c2n1 (some centres unmarked) [Compound 151],1 to 10,0.1 to 1
CCC[C@@H](C)Nc1ncc2c(=O)n(C3CCNCC3)cc([C@H]3CC[C@H](O)CC3)c2n1 [Compound 152],1 to 10,1 to 10
CCCC(C)Nc1ncc2c(OC3CCC(F)(F)CC3)ncc([C@H]3CC[C@H](O)CC3)c2n1 (some centres unmarked) [Compound 153],1 to 10,1 to 10
CCCC(C)Nc1ncc2c(NC3CCN(C)CC3)ncc([C@H]3CC[C@H](O)CC3)c2n1 (some centres unmarked) [Compound 154],0.1 to 1,≤ 0.1
CCCC(C)Nc1ncc2c(N3CCC(NC)CC3)ncc([C@H]3CC[C@H](O)CC3)c2n1 (some centres unmarked) [Compound 155],1 to 10,0.1 to 1
CCCC(C)Nc1ncc2c(N3CC[C@@H](N(C)C)C3)ncc([C@H]3CC[C@H](O)CC3)c2n1 (some centres unmarked) [Compound 156],1 to 10,0.1 to 1
CCCC(C)Nc1ncc2c(OC[C@H]3CC[C@@H](O)CC3)ncc([C@H]3CC[C@H](O)CC3)c2n1 (some centres unmarked) [Compound 157],1 to 10,0.1 to 1
CCCC(C)Nc1ncc2c(NC3CCNCC3)ncc([C@H]3CC[C@H](O)CC3)c2n1 (some centres unmarked) [Compound 158],0.1 to 1,≤ 0.1
CCCC(C)Nc1ncc2c(N3CC[C@H](N(C)C)C3)ncc([C@H]3CC[C@H](O)CC3)c2n1 (some centres unmarked) [Compound 159],1 to 10,1 to 10
CCCC(C)Nc1ncc2c(OC[C@H]3CC[C@H](O)CC3)ncc([C@H]3CC[C@H](O)CC3)c2n1 (some centres unmarked) [Compound 160],1 to 10,0.1 to 1
CCCC(C)Nc1ncc2c(OC3CC(C)(C)N(C)C(C)(C)C3)ncc([C@H]3CC[C@H](O)CC3)c2n1 (some centres unmarked) [Compound 161],0.1 to 1,≤ 0.1
CN1CCC(Nc2ncc3c(OC4CCNCC4)ncc([C@H]4CC[C@H](O)CC4)c3n2)C1=O (some centres unmarked) [Compound 162],1 to 10,1 to 10
Cc1nccn1CCNc1ncc2c(OC3CCNCC3)ncc([C@H]3CC[C@H](O)CC3)c2n1 [Compound 163],1 to 10,1 to 10
